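Cells were grown in 96-well plates and exposed to each compound for 48 hours at five concentrations; endpoints were interpolated linearly between bracketing concentrations, or set to the highest concentration if not reached. Abbreviation: GI50, concentration required for 50% inhibition of growth. TGI marks complete inhibition of growth.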
What was measured:
Test in all cases: NCI-60 cell line screen, 48 h
NCI-H226 lung = system: NCI-H226 lung
HCT-116 colon = system: HCT-116 colon
OVCAR-4 ovarian = system: OVCAR-4 ovarian
SR leukemia = system: SR leukemia
RXF 393 renal = system: RXF 393 renal
MALME-3M melanoma = system: MALME-3M melanoma
SF-539 CNS = system: SF-539 CNS
SNB-75 CNS = system: SNB-75 CNS
U251 CNS = system: U251 CNS
CAKI-1 renal = system: CAKI-1 renal
SF-268 CNS = system: SF-268 CNS
HOP-62 NSCLC = system: HOP-62 NSCLC
UACC-62 melanoma = system: UACC-62 melanoma
MOLT-4 leukemia = system: MOLT-4 leukemia
KM12 colon = system: KM12 colon
A549 NSCLC = system: A549 NSCLC
CCRF-CEM leukemia = system: CCRF-CEM leukemia
SK-MEL-28 melanoma = system: SK-MEL-28 melanoma
OVCAR-5 ovarian = system: OVCAR-5 ovarian
DU-145 prostate = system: DU-145 prostate
UACC-257 melanoma = system: UACC-257 melanoma
SK-MEL-2 melanoma = system: SK-MEL-2 melanoma
SF-295 CNS = system: SF-295 CNS
ACHN renal = system: ACHN renal
HCC-2998 colon = system: HCC-2998 colon
T-47D breast = system: T-47D breast
NCI-H522 lung = system: NCI-H522 lung
MDA-MB-435 = system: MDA-MB-435
HOP-92 NSCLC = system: HOP-92 NSCLC
HCT-15 colon = system: HCT-15 colon
OVCAR-8 ovarian = system: OVCAR-8 ovarian
BT-549 breast = system: BT-549 breast
K-562 leukemia = system: K-562 leukemia
HS 578T breast = system: HS 578T breast
SK-MEL-5 melanoma = system: SK-MEL-5 melanoma
NCI/ADR-RES ovarian = system: NCI/ADR-RES ovarian
PC-3 prostate = system: PC-3 prostate
IGROV1 ovarian = system: IGROV1 ovarian
COLO 205 colon = system: COLO 205 colon
SN12C renal = system: SN12C renal
HT29 colon = system: HT29 colon
SW-620 colon = system: SW-620 colon
LOX IMVI melanoma = system: LOX IMVI melanoma
SK-OV-3 ovarian = system: SK-OV-3 ovarian
NCI-H23 lung = system: NCI-H23 lung
HL-60(TB) leukemia = system: HL-60(TB) leukemia
786-0 renal = system: 786-0 renal
TK-10 renal = system: TK-10 renal
SNB-19 CNS = system: SNB-19 CNS
RPMI-8226 leukemia = system: RPMI-8226 leukemia
UO-31 renal = system: UO-31 renal
MCF7 breast = system: MCF7 breast
NCI-H460 lung = system: NCI-H460 lung
OVCAR-3 ovarian = system: OVCAR-3 ovarian
MDA-MB-231 breast = system: MDA-MB-231 breast
A498 renal = system: A498 renal
M14 melanoma = system: M14 melanoma
EKVX NSCLC = system: EKVX NSCLC

O=c1c2c([nH]c3ccccc13)CCCC2
GI50 (NCI-H226 lung): > 100 µM
TGI (NCI-H226 lung): > 100 µM
GI50 (HCT-116 colon): > 100 µM
TGI (HCT-116 colon): > 100 µM
GI50 (OVCAR-4 ovarian): 37 µM
TGI (OVCAR-4 ovarian): > 100 µM
GI50 (SR leukemia): > 100 µM
TGI (SR leukemia): > 100 µM
GI50 (RXF 393 renal): > 100 µM
TGI (RXF 393 renal): > 100 µM
GI50 (MALME-3M melanoma): > 100 µM
TGI (MALME-3M melanoma): > 100 µM
GI50 (SF-539 CNS): > 100 µM
TGI (SF-539 CNS): > 100 µM
GI50 (SNB-75 CNS): > 100 µM
TGI (SNB-75 CNS): > 100 µM
GI50 (U251 CNS): > 100 µM
TGI (U251 CNS): > 100 µM
GI50 (CAKI-1 renal): > 100 µM
TGI (CAKI-1 renal): > 100 µM
GI50 (SF-268 CNS): > 100 µM
TGI (SF-268 CNS): > 100 µM
GI50 (HOP-62 NSCLC): > 100 µM
TGI (HOP-62 NSCLC): > 100 µM
GI50 (UACC-62 melanoma): > 100 µM
TGI (UACC-62 melanoma): > 100 µM
GI50 (MOLT-4 leukemia): > 100 µM
TGI (MOLT-4 leukemia): > 100 µM
GI50 (KM12 colon): > 100 µM
TGI (KM12 colon): > 100 µM
GI50 (A549 NSCLC): > 100 µM
TGI (A549 NSCLC): > 100 µM
GI50 (CCRF-CEM leukemia): > 100 µM
TGI (CCRF-CEM leukemia): > 100 µM
GI50 (SK-MEL-28 melanoma): > 100 µM
TGI (SK-MEL-28 melanoma): > 100 µM
GI50 (OVCAR-5 ovarian): > 100 µM
TGI (OVCAR-5 ovarian): > 100 µM
GI50 (DU-145 prostate): > 100 µM
TGI (DU-145 prostate): > 100 µM
GI50 (UACC-257 melanoma): > 100 µM
TGI (UACC-257 melanoma): > 100 µM
GI50 (SK-MEL-2 melanoma): 60.4 µM
TGI (SK-MEL-2 melanoma): > 100 µM
GI50 (SF-295 CNS): > 100 µM
TGI (SF-295 CNS): > 100 µM
GI50 (ACHN renal): > 100 µM
TGI (ACHN renal): > 100 µM
GI50 (HCC-2998 colon): > 100 µM
TGI (HCC-2998 colon): > 100 µM
GI50 (T-47D breast): > 100 µM
TGI (T-47D breast): > 100 µM
GI50 (NCI-H522 lung): > 100 µM
TGI (NCI-H522 lung): > 100 µM
GI50 (MDA-MB-435): > 100 µM
TGI (MDA-MB-435): > 100 µM
GI50 (HOP-92 NSCLC): 78.4 µM
TGI (HOP-92 NSCLC): > 100 µM
GI50 (HCT-15 colon): > 100 µM
TGI (HCT-15 colon): > 100 µM
GI50 (OVCAR-8 ovarian): > 100 µM
TGI (OVCAR-8 ovarian): > 100 µM
GI50 (BT-549 breast): > 100 µM
TGI (BT-549 breast): > 100 µM
GI50 (K-562 leukemia): > 100 µM
TGI (K-562 leukemia): > 100 µM
GI50 (HS 578T breast): > 100 µM
TGI (HS 578T breast): > 100 µM
GI50 (SK-MEL-5 melanoma): 45.3 µM
TGI (SK-MEL-5 melanoma): > 100 µM
GI50 (NCI/ADR-RES ovarian): > 100 µM
TGI (NCI/ADR-RES ovarian): > 100 µM
GI50 (PC-3 prostate): > 100 µM
TGI (PC-3 prostate): > 100 µM
GI50 (IGROV1 ovarian): > 100 µM
TGI (IGROV1 ovarian): > 100 µM
GI50 (COLO 205 colon): > 100 µM
TGI (COLO 205 colon): > 100 µM
GI50 (SN12C renal): > 100 µM
TGI (SN12C renal): > 100 µM
GI50 (HT29 colon): > 100 µM
TGI (HT29 colon): > 100 µM
GI50 (SW-620 colon): > 100 µM
TGI (SW-620 colon): > 100 µM
GI50 (LOX IMVI melanoma): > 100 µM
TGI (LOX IMVI melanoma): > 100 µM
GI50 (SK-OV-3 ovarian): > 100 µM
TGI (SK-OV-3 ovarian): > 100 µM
GI50 (NCI-H23 lung): > 100 µM
TGI (NCI-H23 lung): > 100 µM
GI50 (HL-60(TB) leukemia): > 100 µM
TGI (HL-60(TB) leukemia): > 100 µM
GI50 (786-0 renal): > 100 µM
TGI (786-0 renal): > 100 µM
GI50 (TK-10 renal): > 100 µM
TGI (TK-10 renal): > 100 µM
GI50 (SNB-19 CNS): > 100 µM
TGI (SNB-19 CNS): > 100 µM
GI50 (RPMI-8226 leukemia): 81.5 µM
TGI (RPMI-8226 leukemia): > 100 µM
GI50 (UO-31 renal): 49.7 µM
TGI (UO-31 renal): > 100 µM
GI50 (MCF7 breast): > 100 µM
TGI (MCF7 breast): > 100 µM
GI50 (NCI-H460 lung): > 100 µM
TGI (NCI-H460 lung): > 100 µM
GI50 (OVCAR-3 ovarian): > 100 µM
TGI (OVCAR-3 ovarian): > 100 µM
GI50 (MDA-MB-231 breast): > 100 µM
TGI (MDA-MB-231 breast): > 100 µM
GI50 (A498 renal): 1.74 µM
TGI (A498 renal): 55.8 µM

COc1cc(Nc2nc3ccccc3n3cccc23)cc(OC)c1OC
TGI (HCT-116 colon): > 100 µM
TGI (SR leukemia): > 100 µM
TGI (RXF 393 renal): 99.6 µM
TGI (MALME-3M melanoma): > 100 µM
TGI (SF-539 CNS): > 100 µM
TGI (U251 CNS): > 100 µM
TGI (CAKI-1 renal): > 100 µM
TGI (SF-268 CNS): > 100 µM
TGI (HOP-62 NSCLC): 72.9 µM
TGI (UACC-62 melanoma): > 100 µM
TGI (MOLT-4 leukemia): > 100 µM
TGI (KM12 colon): > 100 µM
TGI (A549 NSCLC): > 100 µM
TGI (CCRF-CEM leukemia): > 100 µM
TGI (SK-MEL-28 melanoma): > 100 µM
TGI (OVCAR-5 ovarian): > 100 µM
TGI (DU-145 prostate): > 100 µM
TGI (UACC-257 melanoma): > 100 µM
TGI (SK-MEL-2 melanoma): > 100 µM
TGI (SF-295 CNS): > 100 µM
TGI (ACHN renal): > 100 µM
TGI (HCC-2998 colon): > 100 µM
TGI (T-47D breast): 0.821 µM
TGI (NCI-H522 lung): > 100 µM
TGI (MDA-MB-435): > 100 µM
TGI (HOP-92 NSCLC): > 100 µM
TGI (HCT-15 colon): > 100 µM
TGI (M14 melanoma): > 100 µM
TGI (OVCAR-8 ovarian): > 100 µM
TGI (BT-549 breast): > 100 µM
TGI (K-562 leukemia): > 100 µM
TGI (HS 578T breast): > 100 µM
TGI (SK-MEL-5 melanoma): > 100 µM
TGI (NCI/ADR-RES ovarian): > 100 µM
TGI (PC-3 prostate): > 100 µM
TGI (IGROV1 ovarian): > 100 µM
TGI (COLO 205 colon): > 100 µM
TGI (HT29 colon): > 100 µM
TGI (SW-620 colon): > 100 µM
TGI (LOX IMVI melanoma): > 100 µM
TGI (EKVX NSCLC): > 100 µM
TGI (SK-OV-3 ovarian): > 100 µM
TGI (NCI-H23 lung): > 100 µM
TGI (HL-60(TB) leukemia): > 100 µM
TGI (786-0 renal): > 100 µM
TGI (TK-10 renal): > 100 µM
TGI (SNB-19 CNS): > 100 µM
TGI (RPMI-8226 leukemia): > 100 µM
TGI (UO-31 renal): > 100 µM
TGI (MCF7 breast): > 100 µM
TGI (NCI-H460 lung): > 100 µM
TGI (OVCAR-3 ovarian): > 100 µM
TGI (MDA-MB-231 breast): > 100 µM
TGI (A498 renal): > 100 µM

— PubChem BioAssay (NCI)
